Experimental data reported in patent publication US5773439A, “Amido-quinoxalinediones, the preparation and use thereof” (BASF Aktiengesellschaft, priority 1994, dated 1998).
pKi: −log10 of the molar value.

Tested on: AMPA receptor
Experiment: Binding of 3H-AMPA to rat cerebra membranes
Conditions: for activity compared with the substance of Example 56 in EP 572,852 and compound 16: 3H-AMPA binding; for pKi: displacement of 3H-AMPA, isolated membrane material from rat cerebra
Procedure: The pharmacological activity of the compounds I was investigated in isolated membrane material from rat cerebra. For this purpose, the membrane material was treated in the presence of the compounds according to the invention with the radiolabeled substances ^3 H-2-amino-3-hydroxy-5-methyl-4-isoxazolepropionic acid (^3 H-AMPA) [^3 H]-glycine or [^3 H]-kainate, these binding to specific receptors (AMPA, NMDA or kainate receptors). Subsequently, the radioactivity of the treated membranes was measured by scintillation counting. It was possible to determine from the bound radioactivity the amounts of bound ^3 H-AMPA, [^3 H]-glycine or [^3 H]-kainate, or in each case the amounts of these radiolabeled substances displaced. The dissociation constant KI (I=inhibitor) derived from this is a measure of the displacing action of the agent according to the invention and was found by iterative non-linear regression analysis using the statistical analysis system (SAS) on an IBM computer, similar to the "Ligand" program of P. J. Munson and D. Rodbard (Analytical Biochem. 107, 220 (1980), Ligand: Versatile Computerized Approach for Characterization of Ligand Binding Systems).
1. Binding of ^3 H-2-amino-3-hydroxy-5-methyl-4-isoxazolepropionic acid (^3 H-AMPA)
To prepare the membrane material, freshly removed rat cerebra were homogenized together with 15 times the volume of a buffer solution A comprising 30 mM α,α,α-tris(hydroxymethyl)methylamine hydrochloride (TRIS-HCl) and 0.5 mM ethylenediaminetetraacetic acid (EDTA), pH 7.4, using an Ultra-Turrax®. The suspension was centrifuged at 48,000 g for 20 min. After removal of the supernatant liquid, the protein-containing membrane material contained in the sediment was washed three times by suspension in buffer solution A and subsequent centrifugation at 48,000 g for 20 minutes each time. The membrane material was then suspended in 15 times the volume of buffer solution A and incubated at 37° C. for 30 min. The protein material was subsequently washed twice by centrifugation and suspension and stored at -70° C. until used.
For the binding assay, the protein material was thawed at 37° C. and washed twice by centrifugation at 48,000 g (20 min) and subsequent suspension in a buffer solution B comprising 50 mM TRIS-HCl, 0.1M potassium thiocyanate and 2.5 mM calcium chloride, pH 7.1. Subsequently, 0.25 mg of membrane material, 0.1 μCi of ^3 H-AMPA (60 Ci/mmol) and compound I were dissolved in 1 ml of buffer solution B and incubated on ice for 60 min. The incubated solution was filtered through a CF/B filter (from Whatman) which had previously been treated with a 0.5% strength aqueous solution of polyethyleneimine for at least 2 hours. The membrane residue was subsequently washed with 5 ml of cold buffer solution B in order to separate bound and free ^3 H-AMPA from one another. After measurement of the radioactivity of the bound ^3 H-AMPA in the membrane material by scintillation counting, the KI was determined by regression analysis of the displacement plots.

| SMILES | activity compared with the substance of Example 56 in EP 572,852 and compound 16 (comparison in words) | pKi | activity compared with 1-carbamoyl-7-pyrrolylquinoxalinedione (Example 56 in EP 572,852) (comparison in words, test not named) |
| --- | --- | --- | --- |
| O=C(Nn1c(=O)c(=O)[nH]c2cc(C(F)(F)F)ccc21)c1ccccc1 [Example 1, 1-Benzamido-6-trifluoromethylquinoxaline-2,3(1H,4H)-dione] | more active | > 5.00 |  |
| O=C(Nn1c(=O)c(=O)[nH]c2cc(C(F)(F)F)c(-n3cccc3)cc21)c1ccccc1 [Example 29, 1-Benzamido-7-(1-pyrrolyl)-6-trifluoromethylquinoxaline-2,3-(1H,4H)-dione] | more active | > 5.00 | distinctly more active |
